One molecule from PMC12569736 (Journal of Cosmetic Dermatology, 2025) can be followed below.

Series [1] has as its system MNT‐1 cells. Nature of the series: Cell viability, MNT‐1. The class given is cell-based, human. The following applies: MNT‐1, 72 h, up to 50 μM. The method, then:
B16‐F10, MNT‐1, and HaCaT cells (5000 cells/well) were seeded into 96‐well plates and incubated overnight. Culture medium (50 μL) containing varying concentrations of KT‐939 was added to each well, and cells were incubated for 72 h. Cell viability was assessed using the Cell Viability Assay Kit (Vazyme Biotech), following the manufacturer's instructions. Luminescence was measured using a Synergy H1 Hybrid Reader. DMSO‐treated cells served as the control, and survival rates were calculated and analyzed with GraphPad software.
B16‐F10, MNT‐1, and HaCaT cells were incubated with different concentrations of KT‐939 for 72 h. Cell viability was assessed and normalized to the DMSO‐treated control group.

Series [2] deals with MNT‐1 cells. Nature of the series: Wash‐out assay, melanin content in MNT‐1 cells after drug withdrawal. In kind it is cell-based, human. The following applies: for inhibition at 1 µM / inhibition at 10 µM: Homo sapiens, read-out: melanin inhibition rate after washout; for inhibition at 1 µM: MNT-1, 1 μM for 6 days; for inhibition at 10 µM: MNT-1, 10 μM for 6 days. The method, then:
MNT‐1 cells were treated with 1 or 10 μM KT‐939 for six days, after which the drug‐containing medium was replaced with standard culture medium. Melanin content was measured at various time points.
FIGURE 4 The inhibitory effect of KT‐939 on melanin production is reversible. MNT‐1 cells were exposed to 1 or 10 μM of KT‐939 for 6 days, followed by drug washout and replacement with normal medium. Melanin content was measured at specified time points. Data represent the mean ± standard deviation of three independent experiments.

The test system of series [3] is NRF2/ARE signaling pathway. Kind of series: NRF2/ARE‐luciferase reporter assay in HEK293T cells. The class given is cell-based, human. The following applies: 10 µM, 48 h, relative to DMSO. The procedure:
The NRF2‐responsive firefly luciferase reporter plasmid (pGL4.27_ARE NRF2‐SPE) and Renilla luciferase control plasmid (pRL‐TK) were co‐transfected into HEK293T cells using Lipofectamine 2000. After 24 h, transfected cells were seeded into 96‐well plates and incubated overnight. Test compounds (10 μM) were added, and cells were incubated for an additional 48 h. Luciferase activities were measured using the Dual‐Lumi Luciferase Reporter Assay Kit (Beyotime Biotechnology), following the manufacturer's instructions.
FIGURE 6 KT‐939 activates the ARE/NRF2 signaling pathway. HEK293T cells transfected with an NRF2‐responsive firefly luciferase reporter were treated with 10 µM of KT‐939, hydroquinone (Hq), 377, or 4‐butylresorcinol for 48 h. Luminescence signals were normalized to renilla and expressed relative to DMSO control. *** p < 0.001 vs DMSO.
(In general: In a reporter assay the amount or activity of a reporter protein is the signal.)

Series [4] deals with LPS‐stimulated RAW264.7 cells. Kind of series: RT‐qPCR of inflammatory cytokines in LPS‐stimulated RAW264.7 cells. In kind it is cell-based, mouse. To be noted: 3, 10 or 30 μM pretreatment 2 h, then 100 ng/mL LPS 16 h, vs LPS group. The procedure:
RAW264.7 cells were treated with KT‐939 at concentrations of 3, 10, or 30 μM and incubated for 2 h. After pretreatment, cells were stimulated with 100 ng/mL LPS for an additional 16 h. Total RNA was extracted using the MiniBEST RNA Extraction Kit (Takara Bio) per the manufacturer's protocol. Reverse transcription and SYBR Green‐based qPCR were performed with ABScript II One Step RT‐qPCR Kit (Abclonal). RT‐PCR primer sequences were as follows: (Mouse) TNF‐α sense: 5‐[…]‐3, antisense: 5‐[…]‐3; (Mouse) IL‐6 sense: 5‐[…]‐3, antisense: 5‐[…]‐3; (Mouse) IL‐1α sense: 5‐[…]‐3, antisense: 5‐[…]‐3; (Mouse) GAPDH sense: 5‐[…]‐3, antisense: 5‐[…]‐3; Expression of target gene mRNA was normalized to GAPDH, and results were analyzed using GraphPad software.
RAW264.7 cells were pre‐treated with different concentrations of KT‐939, followed by the addition of 100 ng/mL LPS for 16 h. mRNA levels of TNF‐α, IL‐6, and IL‐1α were quantified by RT‐PCR and compared to the LPS‐induced group (*p < 0.05, **p < 0.01, ***p < 0.001).
Background: In qPCR the cycle at which signal appears reflects the starting amount.

Like-named read-outs stand apart in the source and are kept apart here.

As usually defined, the inhibition is the change of the read-out against control, counted positive when it falls.

Take `CC1(C(=O)Nc2nc(-c3ccc(O)cc3O)cs2)COC1` [KT‐939, N‐(4‐(2,4‐Dihydroxyphenyl) Thiazol‐2‐yl)‐3‐Methyloxetane‐3‐Carboxamide]: the “cytotoxicity (cell viability)” value in the series on MNT‐1 cells [1] was “no significant cytotoxicity”. In addition, the “melanin inhibition after washout” value with MNT‐1 cells [2] (1 μM for 6 days, after seven days) is “returning to baseline”. Further, the “melanin content after washout” value in the series with MNT‐1 cells [2] (10 μM for 6 days, after 11 days of drug withdrawal) is listed as “fully returned to normal levels”. In addition, the inhibition at 1 µM in the series with MNT‐1 cells [2] (day 3 after washout) turned out to be 38%; with MNT‐1 cells [2] (day 5 after washout), 28.3%. Besides, the inhibition at 10 µM is 66.6% in the series with MNT‐1 cells [2] (day 3 after washout), 52.7% in the series on MNT‐1 cells [2] (day 5 after washout), 21.3% in the series with MNT‐1 cells [2] (day 7 after washout) and 20% with MNT‐1 cells [2] (day 9 after washout). Moreover, the “NRF2 signaling pathway activation (luciferase reporter)” value in series [3] is reported as “significantly enhanced the NRF2 signaling pathway”. Further, in series [4], the “IL‐1α mRNA level” value is listed as “dose‐dependent decrease”. In series [4], the “IL‐6 mRNA level” value is on record as “dose‐dependent decrease”. Besides, the “TNF‐α mRNA level” value in series [4] was “dose‐dependent decrease”.
